# Entries after “also recorded” stand apart in the source; their conditions may differ.
# Key:
# Format in all cases: in vivo, human
# SARS-CoV-2 (COVID-19) = assay: Placebo-controlled clinical study of photodynamic treatment: course of disease and mortality in COVID-19 patients
# Protocol: The photosensitizer used was methylene blue as a 1% solution of methylthioninium-chloride dissolved in a 5% glucose solution. (Heltschl GmbH, Germany). The methylene blue solution was applied by flushing and gargling in the oral cavity and throat, and by spraying in the nasal cavity.
# (§1) The photodynamic excitation was performed using the Medlouxx PDT device, produced by laneg GmbH, Germany (www.medlouxx.com). The device applicator emits 660nm laser radiation with 240 mW power. The infected areas were irradiated for 5 minutes resulting in a dosage of about 72 J/cm2. This procedure: 1 min flushing followed by 5 minutes irradiation, was repeated 5 times, resulting in a total dosage of about 360 J/cm2. Before and immediately after the photodynamic treatments, the viral concentration was determined by PCR tests using the PCR real time testing facility ThermoFisher, QuantStudio 3.
# The placebo patients received exactly same treatment procedure except that all placebo patients were treated with covered radiation heads. The patients were not able to distinguish an active versus a placebo treatment due to the filter function of the laser safety goggles.
# (§2) We have treated 300 patients with the active treatment protocol and 300 patients with the placebo protocol described above. The active treatment group consisted of 164 men and 136 women, with an age range of 35-83 years. All patients signed informed consent prior to the start of the treatment protocol. The main inclusion citeria were fever, typical symptoms and a positive PCR test. The main exclusion criterium was a negative PCR test. Besides fever, we have found a significant variability in the initial presenting symptoms, like cough, loss of smell, loss of taste, headaches, fatigue and others.
# We have characterized the course of the disease by the degree and duration of fever which was the most prominent symptom (see Table 1): […]
# SARS CoV-2 = conditions: active treatment group, 4 weeks after photodynamic treatments; ELISA not specific for SARS CoV vs SARS CoV-2
# [1] = Treatment related adverse events in the clinical study; conditions: methylene blue + 660 nm irradiation, 300 patients
# Protocol: as §1, §2
# [2] = max fever 39.2° C., 3 weeks, methylene blue + 660 nm irradiation, 300 patients
# [3] = max fever 39.5° C., 4-6 weeks, methylene blue + 660 nm irradiation, 300 patients
# [4] = moderate = max fever 38.7° C., 2 weeks, methylene blue + 660 nm irradiation, 300 patients
smiles,measurement,setting,value
"CN(C)c1ccc2nc3ccc(=[N+](C)C)cc-3sc2c1 [methylene blue, methylthioninium-chloride]",Mortality Rate - Active Treatment Group,"SARS-CoV-2 (COVID-19); 300 patients, methylene blue + 660 nm irradiation",0.7%
same,"Disease course Severe (Hospital Admission), Active Treatment Number",SARS-CoV-2 (COVID-19); [2],6 patients
same,"Disease course Severe (Hospital Admission), Active Treatment Percentage",SARS-CoV-2 (COVID-19); [2],2%
same,"Disease course Severe (Hospital/ICU Admission), Active Treatment Number",SARS-CoV-2 (COVID-19); [3],2 patients
same,"Disease course Severe (Hospital/ICU Admission), Active Treatment Percentage",SARS-CoV-2 (COVID-19); [3],0.6%
same,"Disease course Mild, Active Treatment Number","SARS-CoV-2 (COVID-19); mild = max fever 37.7° C., 1 week, 1% methylene blue flushing/gargling/spraying + 660 nm, 240 mW, total about 360 J/cm2, 300 patients",192 patients
same,"Disease course Mild, Active Treatment Percentage","SARS-CoV-2 (COVID-19); mild = max fever 37.7° C., 1 week, methylene blue + 660 nm irradiation, 300 patients",64%
same,"Disease course Moderate, Active Treatment Number",SARS-CoV-2 (COVID-19); [4],99 patients
same,"Disease course Moderate, Active Treatment Percentage",SARS-CoV-2 (COVID-19); [4],33%
same,"Severe course of disease (both severe categories together), active treatment group","SARS-CoV-2 (COVID-19); vs. 19% in placebo, methylene blue + 660 nm irradiation",2.6%
same,"Attenuation of disease progression (mild plus moderate course), active treatment group","SARS-CoV-2 (COVID-19); vs. 81% in placebo, methylene blue + 660 nm irradiation",97%
same,Patients with presence of antibodies (ELISA),SARS CoV-2,96%
same,Treatment related adverse events / side effects,[1],free of any side effects; also recorded: no treatment related adverse events
